Here are results for 3 molecules from article PMC2964429 (Biochemistry, 2010).

The target in data set [1] is HpAgD (agmatine deiminase from Helicobacter pylori). Conditions: read-out: IC50 HpAgD; previously reported; cited from earlier work.
In data set [2] the target is PgAgD (agmatine deiminase from P. gingivalis) (Porphyromonas gingivalis, UniProt Q7MXM8). Put plainly: IC50 determination, agmatine deiminase discontinuous ureido. In kind it is biochemical.
Data set [3] deals with SmAgD (agmatine deiminase from S. mutans) (Streptococcus mutans serotype c, UniProt Q8DW17). The data set is described as above. Format: biochemical.
For a further data set, the system named is Cys324. Nature of the data set: chemical modification. Particulars: 37 °C, 50 mM HEPES, free enzyme (kinact/KI).

Sequence of SmAgD (agmatine deiminase from S. mutans) (Q8DW17 whole entry): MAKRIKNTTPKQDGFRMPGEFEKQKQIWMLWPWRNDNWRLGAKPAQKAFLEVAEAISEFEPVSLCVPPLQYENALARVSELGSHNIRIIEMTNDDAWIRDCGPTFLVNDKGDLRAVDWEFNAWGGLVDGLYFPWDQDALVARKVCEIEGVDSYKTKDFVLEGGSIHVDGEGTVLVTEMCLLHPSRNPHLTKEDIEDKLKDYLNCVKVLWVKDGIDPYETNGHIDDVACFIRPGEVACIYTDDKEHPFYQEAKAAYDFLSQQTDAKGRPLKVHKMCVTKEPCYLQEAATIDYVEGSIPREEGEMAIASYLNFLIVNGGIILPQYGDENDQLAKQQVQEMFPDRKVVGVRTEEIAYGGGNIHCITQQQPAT

The term IC50 denotes the concentration that inhibits the measured activity by half. Consider `N=C(CCl)NCCCCN` [ABCA, N-(4-aminobutyl)-2-chloro-ethanimidamide], for which the IC50 in data set [1] was 0.87 ± 0.03 µM; in data set [2] it was 15 ± 3 µM.

On to `N=C(CF)NCCCCN` [ABFA, N-(4-aminobutyl)-2-fluoro-ethanimidamide], for which the IC50 in data set [3] was 0.27 ± 0.1 µM; in data set [1] it was 6.8 ± 0.26 µM; in data set [2] it was 91 ± 25 µM.

Broadly, the pKa is the negative logarithm of the acid dissociation constant. Read a low pKa as a stronger acid or weaker base. On to “Agmatine deiminase (HpAgD) (Helicobacter pylori)”, for which the pKa in the data set with Cys324 (2-chloroacetamidine 0-60 mM) came out at 9.8 ± 0.1; in the data set on Cys324 (iodoacetamide 0-20 mM) it was 9.2 ± 0.3.
